“Also recorded” adds a separate entry of the source.
Tests used:
[1] = target: T1, DNA binding by NFAT1 (Homo sapiens, UniProt Q13469); test: Native EMSA of the effect on DNA binding by NFAT1; type: biochemical; conditions: FIG. 12C; increasing concentrations; probes with UV 365 nm 15 min; compared to control lane 3
T1 construct: human NFAT1 protein (residue 399-676, NFAT1-DBD)
T1 sequence (Q13469 399-676): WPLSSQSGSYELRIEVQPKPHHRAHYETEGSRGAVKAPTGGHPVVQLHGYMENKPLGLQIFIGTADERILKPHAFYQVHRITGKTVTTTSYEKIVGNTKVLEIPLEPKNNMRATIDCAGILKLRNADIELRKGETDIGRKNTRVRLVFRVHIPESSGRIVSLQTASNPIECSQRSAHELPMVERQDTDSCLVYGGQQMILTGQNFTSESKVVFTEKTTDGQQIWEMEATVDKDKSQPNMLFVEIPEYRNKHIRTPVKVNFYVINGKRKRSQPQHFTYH
Method: All binding reactions contain 10 μM 27 mer dsDNA (5′6-FAM labeled) with a NFAT-binding site, and various combinations of NFAT1 protein (14 μM), FA (1% v/v), 4AMT-LC-SDA (20 μM), with or without UV illumination (365 nm, LED, 30 Watt, sample distance 2 cm, exposure time 15 min at 4 degree C.). 10 μl of the binding reaction is run on a 10% PAGE 0.5×TBE gel. The same gel was visualized by FAM fluorescence for DNA (top) and by Coomassie blue stain for protein (bottom). The higher smearing bands in lane 3, 8, 9, and 10 are most likely non-specific protein complexes often seen when an excessive amount of protein is used to ensure all DNA is bound.
The binding reactions were performed in a buffer of 20 mM Hepes pH 7.6, 150 mM NaCl, 1 mM DTT, 12% glycerol. Typically protein and DNA are mixed to bind at room temperature for 30 min, followed by addition of BFPX probes for an additional 15 min and then UV illumination. In the case of FA treatment, the reaction time is 10 min at room temperature and then quenched by 250 mM glycine. When included (as indicated by a positive sign), the binding reaction contains 10 μM 27 mer dsDNA (Cy5-labeled) with a NFAT-binding site (the antigen receptor response element 2, ARRE2, from the IL-2 promoter, 5′-Cy5-[sequence]-3′ (SEQ ID NO: 2), the complementary strand is not labeled), 24 μM of the DNA binding domain (DBD) of human NFAT1 protein (residue 399-676, NFAT1-DBD). The UV illumination (as indicated by a positive sign) was carried out using a LED Chip (21.4 mm×21.4 mm, 365-370 nm, 30 Watt, sample distance 2 cm, exposure time 2-15 min at 4 degree C., here the exposure time is 15 min). Half of the binding reaction (7.5 μl) was run on a 10% PAGE 0.5×TBE gel and visualized by Cy5 fluorescence on DNA. The small amount of single stranded DNA is due to incomplete annealing. The higher smearing bands are most likely non-specific protein complexes. Neither of these experimental imperfections affected the main conclusion of this experiment because the double stranded-DNA bands and the specific NFAT-DNA complex bands (the middle sharp bands) are well defined and can be monitored without the interference of the other bands.
The presence of both DNA and protein in the same shifted band can be checked by the FAM fluorescence signal (top) and Coomassie stain (bottom), respectively (free NFAT is positively charged and not observable under the EMSA condition).

[2] = target: T2, Nkx2.5/DNA complex (Homo sapiens, UniProt P52952); test: BFPX crosslinking of Nkx2.5/DNA complexes, SDS PAGE; type: biochemical; conditions: denaturing SDS PAGE; probes with UV
T2 construct: human Nkx2.5 DBD (the homeodomain); made in house
T2 sequence (P52952 138-197 limits assumed, one chain of several): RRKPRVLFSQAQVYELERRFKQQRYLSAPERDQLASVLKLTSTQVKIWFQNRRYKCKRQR
Method: FIG. 12H depicts BFPX crosslinking of Nkx2.5/DNA complexes. […] The various treatment combinations were list above the gel. The reactions were then analyzed by SDS PAGE under denaturing condition as described in FIG. 12D.

[3] = target: T3, p53/DNA complex (Homo sapiens, UniProt P04637); test: BFPX crosslinking of p53/DNA complexes, SDS PAGE; type: biochemical; conditions: denaturing SDS PAGE; probes with UV; vs no-protein controls
T3 construct: the human tumor suppressor p53 DBD; made in house
T3 sequence (P04637 102-292 limits assumed, one chain of several): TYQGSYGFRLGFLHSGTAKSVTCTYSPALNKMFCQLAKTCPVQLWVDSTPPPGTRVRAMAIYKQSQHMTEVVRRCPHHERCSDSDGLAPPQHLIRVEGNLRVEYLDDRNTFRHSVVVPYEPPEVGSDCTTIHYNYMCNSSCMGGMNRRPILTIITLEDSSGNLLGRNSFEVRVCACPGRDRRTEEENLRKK
Method: FIG. 12I depicts BFPX crosslinking of p53/DNA complexes. The binding reactions between the human tumor suppressor p53 DBD and a 37 mer Cy5 labeled DNA containing a consensus p53 tetramer binding site (5′-/5Cy5/-[…]-3′, (SEQ ID NO: 8)) were set up and treated with BFPX probes and UV illumination as described in FIG. 12C. The various treatment combinations were list above the gel. The reactions were then analyzed by SDS PAGE under denaturing condition as described in FIG. 12D. […] Because p53 bind this this DNA substrate as a tetramer, crosslinked p53/DNA complexes may contain one or more p53 protein molecules. While the monomeric p53/DNA complex appears to be the dominant crosslinked protein-DNA complexes, higher-molecule weight species were visible in SDS gel, which may correspond to crosslinked higher-order p53/DNA complex.

[4] = target: T4, NFAT1/DNA complex (Homo sapiens, UniProt Q13469); test: Identification of covalent attachment site on crosslinked NFAT1 (trypsin digestion, Edman sequencing); conditions: for peptide identified by Edman sequencing of the DNA-peptide conjugate: trypsin digested crosslinked NFAT1/DNA complex
T4 construct: human NFAT1 protein (residue 399-676, NFAT1-DBD)
T4 sequence (Q13469 399-676): T1 sequence (Q13469 399-676)
Method: FIG. 9A-FIG. 9D depicts characterization of BFPX-mediated crosslinking reaction, to identify the covalent attachment site on the protein. (FIG. 9A) A large scale of crosslinking reaction corresponding to lane 11 of FIG. 7 was carried out. The reaction mixture was separated on FPLC using a mono-Q column (yellow trace: conductance, red trace: salt gradient (A:10 mM Hepes pH 7.4; B: 10 mM Hepes 7.4, IM NaCl), blue trace: UV254 nm absorbance). […] The flow-through contains only free NFAT (lane 4), peak I contains predominantly the complex (lane 5) and peak II contains predominantly free DNA (lane 6). (FIG. 9C) The purified NFAT/DNA complex was digested with trypsin and the DNA-peptide conjugate was purified and sequenced by Edman degradation: Top panel, a schematic picture of the DNA binding domain of human NFAT1 (residue 399-676) used in the study, the sequence of loop 478-491, RITGKTVTTTSYEK (SEQ ID NO.: 1), is shown above; Middle panel: a schematic picture of the covalently capture NFAT/DNA complex, the DNA sequence (5′-[…]-3′ (SEQ ID NO: 2) and its complementary strand 3′-[…]-5′ (SEQ ID NO: 3)) used in the study is shown with the two potential probe (yellow wedge and start) binding site (TpA) indicated). The underlined region is the NFAT binding motif. Bottom panel: Edman sequencing results ([…], T480, and G481) identify the loop of 478-491, RITGKTVTTTSYEK (SEQ ID NO: 1), as the attachment site. […]
FIG. 13A depicts characterization of the BFPX-mediated crosslinking reaction: Identification of covalent attachment sites on the crosslinked proteins. […] The reaction mixtures were separated on FPLC using a mono-Q column (yellow trace: conductance, red trace: salt gradient (buffer A:10 mM Hepes pH 7.4; buffer B: 10 mM Hepes 7.4, 1 M NaCl), blue trace: UV254 nm absorbance). […]
We analyzed the covalent attachment sites on the NFAT/DNA complexes crosslinked by SPB-AAD and SPB-PEG4-AAD using a work flow shown in FIG. 13A. […] The sequencing results were generally noisy with multiple amino acids detected in each cycle. […]

Compound | effect on the binding of NFAT1 to DNA [1] | crosslinking of the Nkx2.5/DNA complex [2] | crosslinking of the p53/DNA complex [3] | peptide identified by Edman sequencing of the DNA-peptide conjugate [4] | covalent attachment site on NFAT1 ([4]; human NFAT1 DBD residue 399-676)
C#CCCC1(CCNC(=O)CCCOc2c3occc3cc3ccc(=O)oc23)N=N1 [SPB-AAD, N-(2-(3-(but-3-yn-1-yl)-3H-diazirin-3-yl)ethyl)-4-((7-oxo-7H-furo[3,2-g]chromen-9-yl)oxy)butanamide] | little or no effect | significant crosslinking of the Nkx2.5/DNA complex | significant crosslinking of the p53/DNA complex | IVGN and Ile, Thr, and Gly | 
C#CCCC1(CCNC(=O)CCOCCOCCOCCOCCNC(=O)CCCOc2c3occc3cc3ccc(=O)oc23)N=N1 [SPB-PEG4-AAD, N-(2-(3-(but-3-yn-1-yl)-3H-diazirin-3-yl)ethyl)-1-(4-((7-oxo-7H-furo[3,2-g]chromen-9-yl)oxy)butanamido)-3,6,9,12-tetraoxapentadecan-15-amide] | little or no effect | significant crosslinking of the Nkx2.5/DNA complex | significant crosslinking of the p53/DNA complex | APTGGH | residues 434 and 452; also recorded: loop of 434-452

— patent publication US20250388597A1, “BIFUNCTIONAL PHOTOCROSSLINKING PROBES FOR COVALENT CAPTURE OF PROTEIN-NUCLEIC ACID COMPLEXES IN CELLS” (UNIVERSITY OF SOUTHERN CALIFORNIA, priority 2022, published 2025)
